Results reported in ChEMBL document CHEMBL1201862, “PubChem BioAssay data set” (2004).
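In this assay, cells in 96-well plates receive the compound at five concentrations for 48 hours. Endpoints are linearly interpolated between the surrounding concentrations. The concentration for 50% growth inhibition is given as GI50.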 The source made the active and inactive calls. Cut-off read from the data, not from the text of the source: active = GI50 up to about 1.1 µM and inactive = higher.

Tests used:
Assay in all cases: inhibition of tumour cell growth, NCI panel, 48 h
Malme-3M = test system: Malme-3M
SK-MEL-2 = test system: SK-MEL-2
OVCAR-4 = test system: OVCAR-4
U-251 = test system: U-251
M19-MEL = test system: M19-MEL
SN12C = test system: SN12C
HL-60 = test system: HL-60
XF498 = test system: XF498
HOP-18 = test system: HOP-18
LXFL 529 = test system: LXFL 529
COLO 205 = test system: COLO 205
NCI-H23 = test system: NCI-H23
CCRF-CEM = test system: CCRF-CEM
KM12 = test system: KM12
HT-29 = test system: HT-29
SR = test system: SR
SNB-78 = test system: SNB-78
TK-10 = test system: TK-10
K562 = test system: K562
A549 = test system: A549
786-0 = test system: 786-0
SF-295 = test system: SF-295
OVCAR-3 = test system: OVCAR-3
SK-OV-3 = test system: SK-OV-3
SNB-19 = test system: SNB-19
ACHN = test system: ACHN
SK-MEL-28 = test system: SK-MEL-28
UACC-257 = test system: UACC-257
NCI-H226 = test system: NCI-H226
EKVX = test system: EKVX
DMS-114 = test system: DMS-114
HOP-62 = test system: HOP-62
UO-31 = test system: UO-31
RXF 393 = test system: RXF 393
OVCAR-8 = test system: OVCAR-8
DLD-1 = test system: DLD-1
A498 = test system: A498
LOX IMVI = test system: LOX IMVI
HCC 2998 = test system: HCC 2998
RPMI-8226 = test system: RPMI-8226
UACC-62 = test system: UACC-62
M14 = test system: M14
HCT-15 = test system: HCT-15
KM-20L2 = test system: KM-20L2
NCI-H522 = test system: NCI-H522
HOP-92 = test system: HOP-92
SF-268 = test system: SF-268
MOLT-4 = test system: MOLT-4
SNB-75 = test system: SNB-75
HCT-116 = test system: HCT-116
NCI-H460 = test system: NCI-H460
DMS-273 = test system: DMS-273
SW-620 = test system: SW-620
SF-539 = test system: SF-539
IGROV-1 = test system: IGROV-1

CCN(CC)C(=O)c1c(Cl)cc(N(CC)CC)oc1=O
GI50 (Malme-3M): > 100 µM (inactive) | GI50 (SK-MEL-2): > 100 µM (inactive) | GI50 (OVCAR-4): > 100 µM (inactive) | GI50 (U-251): > 100 µM (inactive) | GI50 (M19-MEL): > 100 µM (inactive) | GI50 (SN12C): > 100 µM (inactive) | GI50 (HL-60): > 100 µM (inactive) | GI50 (XF498): > 100 µM (inactive) | GI50 (HOP-18): > 100 µM (inactive) | GI50 (LXFL 529): > 100 µM (inactive) | GI50 (COLO 205): > 100 µM (inactive) | GI50 (NCI-H23): > 100 µM (inactive) | GI50 (CCRF-CEM): > 100 µM (inactive) | GI50 (KM12): > 100 µM (inactive) | GI50 (HT-29): > 100 µM (inactive) | GI50 (SR): > 100 µM (inactive) | GI50 (SNB-78): > 100 µM (inactive) | GI50 (TK-10): > 100 µM (inactive) | GI50 (K562): > 100 µM (inactive) | GI50 (A549): > 100 µM (inactive) | GI50 (786-0): > 100 µM (inactive) | GI50 (SF-295): > 100 µM (inactive) | GI50 (OVCAR-3): > 100 µM (inactive) | GI50 (SK-OV-3): > 100 µM (inactive) | GI50 (SNB-19): > 100 µM (inactive) | GI50 (ACHN): > 100 µM (inactive) | GI50 (SK-MEL-28): > 100 µM (inactive) | GI50 (UACC-257): > 100 µM (inactive) | GI50 (NCI-H226): > 100 µM (inactive) | GI50 (EKVX): > 100 µM (inactive) | GI50 (DMS-114): > 100 µM (inactive) | GI50 (HOP-62): > 100 µM (inactive) | GI50 (UO-31): > 100 µM (inactive) | GI50 (RXF 393): > 100 µM (inactive) | GI50 (OVCAR-8): > 100 µM (inactive) | GI50 (DLD-1): > 100 µM (inactive) | GI50 (A498): > 100 µM (inactive) | GI50 (LOX IMVI): > 100 µM (inactive) | GI50 (HCC 2998): > 100 µM (inactive) | GI50 (RPMI-8226): > 100 µM (inactive) | GI50 (UACC-62): > 100 µM (inactive) | GI50 (M14): > 100 µM (inactive) | GI50 (HCT-15): > 100 µM | GI50 (KM-20L2): > 100 µM (inactive) | GI50 (NCI-H522): > 100 µM (inactive) | GI50 (HOP-92): > 100 µM (inactive) | GI50 (SF-268): > 100 µM (inactive) | GI50 (MOLT-4): > 100 µM (inactive) | GI50 (SNB-75): > 100 µM (inactive) | GI50 (HCT-116): > 100 µM (inactive) | GI50 (NCI-H460): > 100 µM (inactive) | GI50 (DMS-273): > 100 µM (inactive) | GI50 (SW-620): > 100 µM (inactive) | GI50 (SF-539): > 100 µM (inactive) | GI50 (IGROV-1): > 100 µM (inactive)
